Source: patent US20220306617A1, “SUBSTITUTED 1,3-PHENYL HETEROARYL DERIVATIVES AND THEIR USE IN THE TREATMENT OF DISEASE” (NOVARTIS AG, priority 2019, published 2022)
Where a name gives a salt, the structure may show the parent alone.

Target: T1, abc isoform of human TMEM16A channel expressed in CHO cells (Homo sapiens, UniProt Q5XXA6, DEL476-501)
T1 construct: expressed in transfected cells; host or cells: CHO cells, doxycycline-inducible expression under Blasticidin/Zeocin selection
T1 sequence (Q5XXA6 with tags, fused parts or gaps isoform Q5XXA6-5 DEL539-564): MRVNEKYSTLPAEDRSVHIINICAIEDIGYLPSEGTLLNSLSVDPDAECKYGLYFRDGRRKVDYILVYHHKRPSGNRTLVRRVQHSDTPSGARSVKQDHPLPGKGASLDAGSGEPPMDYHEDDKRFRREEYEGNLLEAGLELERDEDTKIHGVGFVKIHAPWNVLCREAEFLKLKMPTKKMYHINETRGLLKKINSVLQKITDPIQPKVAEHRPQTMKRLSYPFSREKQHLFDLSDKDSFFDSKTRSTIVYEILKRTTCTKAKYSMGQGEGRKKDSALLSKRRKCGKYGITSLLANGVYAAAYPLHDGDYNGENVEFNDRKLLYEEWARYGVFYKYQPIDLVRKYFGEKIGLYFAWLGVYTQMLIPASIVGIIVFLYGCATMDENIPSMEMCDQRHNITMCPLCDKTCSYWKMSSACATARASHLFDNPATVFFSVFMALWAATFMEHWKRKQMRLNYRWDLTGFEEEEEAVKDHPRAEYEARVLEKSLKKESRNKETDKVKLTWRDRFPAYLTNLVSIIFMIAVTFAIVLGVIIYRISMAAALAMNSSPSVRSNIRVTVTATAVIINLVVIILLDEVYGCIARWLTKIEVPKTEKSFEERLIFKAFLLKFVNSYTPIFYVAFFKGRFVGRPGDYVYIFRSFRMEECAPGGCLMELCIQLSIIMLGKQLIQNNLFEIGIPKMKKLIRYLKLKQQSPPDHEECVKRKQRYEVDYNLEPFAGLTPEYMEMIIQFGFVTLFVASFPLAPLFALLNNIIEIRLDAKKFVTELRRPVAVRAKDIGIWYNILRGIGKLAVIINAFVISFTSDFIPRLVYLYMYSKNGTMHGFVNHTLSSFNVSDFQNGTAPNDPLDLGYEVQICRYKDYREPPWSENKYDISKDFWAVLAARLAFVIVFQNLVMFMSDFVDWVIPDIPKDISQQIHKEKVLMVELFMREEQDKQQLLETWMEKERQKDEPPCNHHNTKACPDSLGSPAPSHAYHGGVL
Assay: Automated patch clamping (QPatch) assay to measure TMEM16A activity in whole-cell
Format: cell-based
Details: for EC50: CHO cells expressing human TMEM16A (abc), whole-cell automated patch clamp, Hill fit, read-out: TMEM16A QPATCH assay EC50 V3 EC50; for Emax: CHO, read-out: TMEM16A QPATCH assay EC50 V3 Assay Window (% TMEM16A max activation)
Method in brief: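 CHO cells with doxycycline-induced (1 μg/mL, 18-24 h) human TMEM16A abc isoform; QPatch whole-cell recording, hold −70 mV, step +70 mV 1500 ms, then −90 to +70 mV ramp. Compounds in 0.3% DMSO; EC50 by Hill fit; % max activation relative to vehicle baseline and reference potentiator maximum.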

[1] = maximum current at highest dose relative to reference potentiator at maximal concentration (upper limit) and vehicle (lower limit)

EC50	Emax [1]	TMEM16A QPATCH assay EC50 V3 Assay Window (% TMEM16A max activation) [1]	SMILES
30 nM	92%		C[C@H](NC(=O)c1nnc(-c2cccc(-c3ncc(C(=O)NC(C4CC4)C4CC4)o3)c2)[nH]1)C1CC1 [Example 12.5, (S)-2-(3-(5-((1-Cyclopropylethyl)Carbamoyl)-4H-1,2,4-Triazol-3-Yl)Phenyl)-N-(Dicyclopropylmethyl)Oxazole-5-Carboxamide]
40 nM	110%		CCOC(=O)[C@@H](NC(=O)c1cc(-c2cccc(-c3ncc(C(=O)NC(CC)CC)o3)c2)nn1CCO)C(C)C [Example 5.0, (S)-ethyl 2-(1-(2-hydroxyethyl)-3-(3-(5-(pentan-3-ylcarbamoyl)oxazol-2-yl)phenyl)-1 H-pyrazole-5-carboxamido)-3-methylbutanoate]
20 nM	142%		CCOC(=O)[C@@H](NC(=O)c1cnc(-c2cccc(-c3nnc(C(=O)NC(C4CC4)C4CC4)[nH]3)c2)o1)C(C)C [Example 12.6, (S)-Ethyl 2-(2-(3-(5-((Dicyclopropylmethyl)Carbamoyl)-4H-1,2,4-Triazol-3-Yl)Phenyl)Oxazole-5-Carboxamido)-3-Methylbutanoate]
120 nM	220%		COC(=O)[C@@H](NC(=O)c1cnc(-c2cccc(-c3cc(C(=O)NC(C4CC4)C4CC4)n(CC(O)C(F)(F)F)n3)c2)o1)C(C)C (stereo partly drawn) [Example 6.1, (2S)-Methyl 2-(2-(3-(5-((Dicyclopropylmethyl)Carbamoyl)-1-(3,3,3-Trifluoro-2-Hydroxypropyl)-1H-Pyrazol-3-Yl)Phenyl)Oxazole-5-Carboxamido)-3-Methylbutanoate]
470 nM	121%		COC(=O)[C@@H](NC(=O)c1nc(-c2cccc(-c3ncc(C(=O)NC(C4CC4)C4CC4)o3)c2)n[nH]1)C(C)C [Example 13.7, (S)-Methyl 2-(3-(3-(5-((Dicyclopropylmethyl)Carbamoyl)Oxazol-2-Yl)Phenyl)-1H-1,2,4-Triazole-5-Carboxamido)-3-Methylbutanoate]
440 nM	88%		CCOC(=O)CCCCCn1nc(-c2cccc(-c3ncc(C(=O)NC(CC)CC)o3)c2)nc1C(=O)NC(CC)CC [Example 15.11]
420 nM	85%		C[C@H](NC(=O)c1nnc(-c2cccc(-c3ncc(C(=O)NC45CC6CC(CC(C6)C4)C5)o3)c2)[nH]1)C1CC1 [Example 12.16, (S)-N-(Adamantan-1-Yl)-2-(3-(5-((1-Cyclopropylethyl)Carbamoyl)-4H-1,2,4-Triazol-3-Yl)Phenyl)Oxazole-5-Carboxamide]

The remaining lines, values behind:

SMILES	EC50	Emax [1]	TMEM16A QPATCH assay EC50 V3 Assay Window (% TMEM16A max activation) [1]
CCC(CC)NC(=O)c1cc(-c2cccc(-c3ncc(C(=O)N[C@@H](C)C4CC4)o3)c2)[nH]n1 [Example 1.6, (S)-N-(1-Cyclopropylethyl)-2-(3-(3-(Pentan-3-Ylcarbamoyl)-1H-Pyrazol-5-Yl)Phenyl)Oxazole-5-Carboxamide]	130 nM	61%	
CCC(CC)NC(=O)c1cc(-c2cccc(-c3ncc(C(=O)N[C@@H](C)C4CCCCC4)o3)c2)[nH]n1 [Example 1.24, (S)-N-(1-Cyclohexylethyl)-2-(3-(3-(Pentan-3-Ylcarbamoyl)-1H-Pyrazol-5-yl)Phenyl)Oxazole-5-Carboxamide]	180 nM	83%	
CCC(CC)NC(=O)c1cc(-c2cccc(-c3ncc(C(=O)N[C@H](C(=O)OC)C(C)C)o3)c2)[nH]n1 [Example 1.47, (S)-Methyl 3-Methyl-2-(2-(3-(3-(Pentan-3-Ylcarbamoyl)-1H-Pyrazol-5-yl)Phenyl)Oxazole-5-Carboxamido)Butanoate]	150 nM	75%	
CCC(CC)NC(=O)c1cnc(-c2cccc(-c3cc(C(=O)NC(COC)C4CC4)n[nH]3)c2)o1 (stereo not drawn) [Example 3.1, 2-(3-(3-((1-Cyclopropyl-2-Methoxyethyl)Carbamoyl)-1H-Pyrazol-5-Yl)Phenyl)-N-(Pentan-3-Yl)Oxazole-5-Carboxamide]	300 nM	140%	
CCOC(=O)[C@H](NC(=O)c1cnc(-c2cccc(-c3cc(C(=O)NC(CC)CC)n[nH]3)c2)o1)c1ccccc1 [Example 1.28, (R)-Ethyl 2-(2-(3-(3-(Pentan-3-Ylcarbamoyl)-1 H-Pyrazol-5-yl)Phenyl)Oxazole-5-Carboxamido)-2-Phenylacetate]	610 nM	84%	
COC(=O)[C@@H](NC(=O)c1cnc(-c2cccc(-c3cc(C(=O)N[C@@H](C)C4CC4)n(CC(O)C(F)(F)F)n3)c2)o1)C(C)C (single isomer, unassigned) [8.1 (i)]	10 nM	135%	
COC(=O)[C@H](CC(C)C)NC(=O)c1cc(-c2cccc(-c3ncc(C(=O)N[C@@H](CC(C)C)C(=O)OC)o3)c2)[nH]n1 [Example 3.58, (S)-Methyl 2-(2-(3-(3-(((S)-1-Methoxy-4-Methyl-1-Oxopentan-2-Yl)Carbamoyl)-1H-Pyrazol-5-Yl)Phenyl)Oxazole-5-Carboxamido)-4-Methylpentanoate]	270 nM	77%	
CCC(CC)NC(=O)c1cc(-c2cccc(-c3ncc(C(=O)N[C@@H](C)C(=O)OCc4ccccc4)o3)c2)[nH]n1 [Example 1.41, (S)-Benzyl 2-(2-(3-(3-(Pentan-3-Ylcarbamoyl)-1H-Pyrazol-5-yl)Phenyl)Oxazole-5-Carboxamido)Propanoate]	950 nM	75%	
CCC(CC)NC(=O)c1cc(-c2cccc(-c3ncc(C(=O)N[C@@H](C)CC)o3)c2)[nH]n1 [Example 1.45, (S)-N-(Sec-Butyl)-2-(3-(3-(Pentan-3-Ylcarbamoyl)-1H-Pyrazol-5-Yl)Phenyl)Oxazole-5-Carboxamide]	710 nM	75%	
CCC(CC)NC(=O)c1cnc(-c2cccc(-c3cc(C(=O)N[C@H](C)C4CC4)[nH]n3)c2)o1 [Example 3.56, (R)-2-(3-(5-((1-Cyclopropylethyl)Carbamoyl)-1H-Pyrazol-3-Yl)Phenyl)-N-(Pentan-3-Yl)Oxazole-5-Carboxamide]	90 nM	78%	
CCC(CC)NC(=O)c1cc(-c2cccc(-c3ncc(C(=O)NC(CC)C(C)C)o3)c2)[nH]n1 (stereo not drawn) [Example 1.11, N-(2-Methylpentan-3-Yl)-2-(3-(3-(Pentan-3-Ylcarbamoyl)-1H-Pyrazol-5-yl)Phenyl)Oxazole-5-Carboxamide]	270 nM	165%	
CCOC(=O)[C@@H](NC(=O)c1cnc(-c2cccc(-c3cc(C(=O)NC(C4CC4)C(F)(F)F)[nH]n3)c2)o1)C(C)C (single isomer, unassigned) [Example 2.3 (ii)]	80 nM		97%
CCC(CC)NC(=O)c1cnc(-c2cccc(-c3cc(C(=O)N[C@@H](CC(C)C)C(=O)NCC(=O)OC(C)(C)C)n[nH]3)c2)o1 [Example 3.57, (S)-Tert-Butyl 2-(4-Methyl-2-(5-(3-(5-(Pentan-3-Ylcarbamoyl)Oxazol-2-Yl)Phenyl)-1H-Pyrazole-3-Carboxamido)Pentanamido)Acetate]	650 nM	111%	
CCC(CC)NC(=O)c1cnc(-c2cccc(-c3cc(C(=O)N[C@@H](C)CC)n[nH]3)c2)o1 [Example 3.24, (S)-2-(3-(3-(Sec-Butylcarbamoyl)-1H-Pyrazol-5-Yl)Phenyl)-N-(Pentan-3-Yl)Oxazole-5-Carboxamide]	40 nM	76%	
CCOC(=O)[C@H](C)NC(=O)c1cc(-c2cccc(-c3ncc(C(=O)NC(CC)CC)o3)c2)[nH]n1 [Example 3.63, (S)-Ethyl 2-(5-(3-(5-(Pentan-3-Ylcarbamoyl)Oxazol-2-Yl)Phenyl)-1H-Pyrazole-3-Carboxamido)Propanoate Trifluoroacetate]	860 nM	72%	
CCC(CC)NC(=O)c1cnc(-c2cccc(-c3cc(C(=O)NC(C)(C)CCc4ccccc4)n[nH]3)c2)o1 [Example 3.39, 2-(3-(3-((2-Methyl-4-Phenylbutan-2-Yl)Carbamoyl)-1H-Pyrazol-5-yl)Phenyl)-N-(Pentan-3-Yl)Oxazole-5-Carboxamide]	150 nM	98%	
CCC(CC)NC(=O)c1cc(-c2cccc(-c3ncc(C(=O)NC(C)(C)C)o3)c2)[nH]n1 [Example 1.13, N-(Tert-Butyl)-2-(3-(3-(Pentan-3-Ylcarbamoyl)-1H-Pyrazol-5-yl)Phenyl)Oxazole-5-Carboxamide]	400 nM	112%	
